According to US9877940B2, “Anthraquinone compounds and their uses” (DUNDALK INSTITUTE OF TECHNOLOGY, priority 2010, dated 2018):

What was measured:
BK channels [1] = target: T1, BK channels (Oryctolagus cuniculus, UniProt Q9BG98); assay: Perforated patch whole cell patch clamp, outward BK current in isolated smooth muscle cells; format: cell-based, rabbit; conditions: 10 μM; steps from −80 mV to +50 mV; holding −60 mV
T1 construct: wherein the native BK channels were more sensitive to Ca^2+; from tissue
T1 sequence (Q9BG98 whole entry): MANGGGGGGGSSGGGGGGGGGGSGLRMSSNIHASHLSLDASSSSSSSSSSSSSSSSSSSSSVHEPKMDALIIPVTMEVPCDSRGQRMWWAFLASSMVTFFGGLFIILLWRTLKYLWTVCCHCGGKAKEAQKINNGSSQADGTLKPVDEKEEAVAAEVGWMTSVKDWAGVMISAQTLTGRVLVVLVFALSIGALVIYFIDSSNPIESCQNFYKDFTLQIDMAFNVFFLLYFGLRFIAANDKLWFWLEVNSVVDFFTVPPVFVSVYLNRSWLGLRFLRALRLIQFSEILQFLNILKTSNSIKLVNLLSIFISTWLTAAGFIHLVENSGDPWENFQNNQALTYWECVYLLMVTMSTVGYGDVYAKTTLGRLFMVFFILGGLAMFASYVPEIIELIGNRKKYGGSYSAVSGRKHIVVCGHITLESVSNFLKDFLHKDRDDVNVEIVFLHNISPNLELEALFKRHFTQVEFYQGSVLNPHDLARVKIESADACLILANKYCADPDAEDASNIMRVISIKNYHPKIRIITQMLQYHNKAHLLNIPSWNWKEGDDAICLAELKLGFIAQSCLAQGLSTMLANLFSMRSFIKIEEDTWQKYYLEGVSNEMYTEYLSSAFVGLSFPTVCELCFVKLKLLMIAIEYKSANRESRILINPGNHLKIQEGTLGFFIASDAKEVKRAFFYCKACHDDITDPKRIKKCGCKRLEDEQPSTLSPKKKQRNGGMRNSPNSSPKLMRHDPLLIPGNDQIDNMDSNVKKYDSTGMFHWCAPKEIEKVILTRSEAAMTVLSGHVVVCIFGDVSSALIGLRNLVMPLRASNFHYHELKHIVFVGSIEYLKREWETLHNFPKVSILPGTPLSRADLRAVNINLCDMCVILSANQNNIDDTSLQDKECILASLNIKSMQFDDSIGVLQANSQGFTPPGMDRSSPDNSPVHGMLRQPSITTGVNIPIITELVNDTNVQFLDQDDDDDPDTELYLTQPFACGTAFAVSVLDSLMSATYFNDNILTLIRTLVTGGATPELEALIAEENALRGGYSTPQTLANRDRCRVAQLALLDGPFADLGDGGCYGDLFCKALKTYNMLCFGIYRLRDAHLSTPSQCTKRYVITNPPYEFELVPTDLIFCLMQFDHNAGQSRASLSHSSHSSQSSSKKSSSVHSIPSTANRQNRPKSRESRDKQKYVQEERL
Method: The cell membrane was perforated using the antibiotic amphotericin B (600 μg·ml^−1).
Standard Hank's solution is used to bathe the cells in these experiments. Isolated smooth muscle cells from rabbit urethra we held at −60 mV. The test protocol involved stepping from −60 mV to −80 mV for 500 msecs, and then stepping the voltage up in +10 mV increments to +50 mV before returning to the holding potential of −60 mV.

BK channels [2] = target: T1, BK channels; assay: Single channel recordings, inside-out patch clamp, voltage ramps, isolated smooth muscle cells of the rabbit bladder; format: cell-based; conditions: for effect on BK channel activity, in words (SAR discussion based on V1/2 data): inside out patches on rabbit smooth muscle cells
Method: All experiments were approved by the Dundalk Institute of Technology Animal Care and Use Committee. […] The urinary bladder and most proximal 1.5 cm of the urethra was removed and placed in Krebs solution. Strips of bladder tissue, 0.5 cm in width were dissected, cut into 1 mm^3 pieces and stored in Ca^2+-free Hanks' solution for 30 min prior to cell dispersal. Tissue pieces were incubated in dispersal medium containing (per 5 ml) of Ca^2+-free Hanks' solution: 15 mg collagenase (Sigma type 1A), 1 mg protease (Sigma type XXIV), 10 mg bovine serum albumin (Sigma) and 10 mg trypsin inhibitor (Sigma) for 10-15 min at 37° C. Tissue was then transferred to Ca^2+-free Hanks' solution and stirred for a further 10-15 min to release single smooth muscle cells. These were plated in Petri dishes containing 100 μM Ca^2+ Hanks' solution and stored at 4° C. for use within 8 h. During experiments, the dish containing the cells was continuously perfused with Hanks' solution at 36±1° C. Additionally the cell under study was continuously superfused by means of a custom built close delivery system with a pipette of tip diameter 200 μm placed approximately 300 μm from the cell. The high K^+ solution in the close delivery system could be switched to a drug-containing solution with a dead space time of less than 5 s.
For whole cell recordings pipettes were pulled from borosilicate glass capillary tubing (1.5 mm outer diameter, 1.17 mm inner diameter; Clark Medical Instruments) to a tip of diameter approximately 1-1.5 μm and resistance of 2-4 Mohms. For single channel recordings, pipettes were pulled from borosilicate glass capillary tubing (1.5 mm outer diameter, 0.8 mm inner diameter; Clark Medical Instruments) and fire polished before use. Voltage clamp commands were delivered via an Axopatch 1D or Axon 200B patch clamp amplifiers (Axon Instruments) and membrane currents were recorded by a 12 bit AD/DA converter (Axodata 1200 or Labmaster, Scientific Solutions) interfaced to an Intel computer running pCLAMP software.
All values in (mM): KCl, 140. Glucose, 10, EGTA 1 and HEPES, 10. For free Ca^2+ greater than 300 nM: All values in (mM): KCl, 140. Glucose, 10, H-EDTA 1 and HEPES, 10. The same solution composition is used in the bath as in the patch pipette for these experiments except that the pipette solution contained 100 nM Ca^2+.
In single channel experiments voltage commands were applied using pClamp ramped potentials. This allowed more efficient measurement of slope conductance and channel activation than conventional step depolarisations. Activation curves were calculated by averaging current responses to 15 potential ramps and dividing each data point of the averaged current by the single channel amplitude at that holding potential, after leakage current correction. […] This analysis provides a continuous recording of the number of open channels multiplied by the open probability (NPo) over the entire voltage range. To obtain values for the steepness of the voltage-dependent activation and half-maximal activation voltage, activation curves were fitted with Boltzman functions of the form: NPo=n/{1+exp[−K(V−V1/2)]} where N is the number of channels in the patch, n is the maximal NPo level, K^−1 is the steepness of the voltage-dependent activation (change in potential necessary to cause an e-fold increase in activation) and V1/2 is the voltage at which there is half-maximal activation. Again, all of the experiments were carried out at 36±1° C.
The patches were held at a potential of −100 mV and voltage ramps were then applied from −100 mV up to +100 mV over 2 s.
Patches were held at −100 mV and ramped through to +100 mV and each sweep was repeated 15 times. The same protocol was repeated after the patch was incubated in 1 μM Ca^2+.

L-type calcium channel = assay: Inward L-type calcium current, perforated patch clamp with Cs+ pipette solution, isolated smooth muscle cells of the rabbit bladder; format: cell-based; conditions: held at −60 mV, stepped to 0 mV for 500 ms
Source text: Using methods described above herein, the patch pipette solution was altered to allow for measurement of inward L-type calcium currents which although present in earlier studies are not visible due to the overwhelming size of the outward BK current. By replacing K^+ with Cs^+ ions, the outward current is now blocked and a prominent inward current carried by Calcium is present. This is the L-type calcium ion channel currents allowing calcium into the cells.
All values in (mM): CsCl, 132.96. MgCl2.6H20, 1. EGTA, 0.5 and HEPES, 10.
With reference to FIG. 5, isolated smooth muscle cells from the rabbit bladder were held at −60 mV and stepped to 0 mV for 500 ms. Pipette solutions contained Cs^+ to block outward K^+ currents.

BK channel = BK channel (Homo sapiens, UniProt Q12791); conditions: applied to the inside of the membrane; cited from earlier work
Chain of BK channel (Q12791 whole entry, species assumed): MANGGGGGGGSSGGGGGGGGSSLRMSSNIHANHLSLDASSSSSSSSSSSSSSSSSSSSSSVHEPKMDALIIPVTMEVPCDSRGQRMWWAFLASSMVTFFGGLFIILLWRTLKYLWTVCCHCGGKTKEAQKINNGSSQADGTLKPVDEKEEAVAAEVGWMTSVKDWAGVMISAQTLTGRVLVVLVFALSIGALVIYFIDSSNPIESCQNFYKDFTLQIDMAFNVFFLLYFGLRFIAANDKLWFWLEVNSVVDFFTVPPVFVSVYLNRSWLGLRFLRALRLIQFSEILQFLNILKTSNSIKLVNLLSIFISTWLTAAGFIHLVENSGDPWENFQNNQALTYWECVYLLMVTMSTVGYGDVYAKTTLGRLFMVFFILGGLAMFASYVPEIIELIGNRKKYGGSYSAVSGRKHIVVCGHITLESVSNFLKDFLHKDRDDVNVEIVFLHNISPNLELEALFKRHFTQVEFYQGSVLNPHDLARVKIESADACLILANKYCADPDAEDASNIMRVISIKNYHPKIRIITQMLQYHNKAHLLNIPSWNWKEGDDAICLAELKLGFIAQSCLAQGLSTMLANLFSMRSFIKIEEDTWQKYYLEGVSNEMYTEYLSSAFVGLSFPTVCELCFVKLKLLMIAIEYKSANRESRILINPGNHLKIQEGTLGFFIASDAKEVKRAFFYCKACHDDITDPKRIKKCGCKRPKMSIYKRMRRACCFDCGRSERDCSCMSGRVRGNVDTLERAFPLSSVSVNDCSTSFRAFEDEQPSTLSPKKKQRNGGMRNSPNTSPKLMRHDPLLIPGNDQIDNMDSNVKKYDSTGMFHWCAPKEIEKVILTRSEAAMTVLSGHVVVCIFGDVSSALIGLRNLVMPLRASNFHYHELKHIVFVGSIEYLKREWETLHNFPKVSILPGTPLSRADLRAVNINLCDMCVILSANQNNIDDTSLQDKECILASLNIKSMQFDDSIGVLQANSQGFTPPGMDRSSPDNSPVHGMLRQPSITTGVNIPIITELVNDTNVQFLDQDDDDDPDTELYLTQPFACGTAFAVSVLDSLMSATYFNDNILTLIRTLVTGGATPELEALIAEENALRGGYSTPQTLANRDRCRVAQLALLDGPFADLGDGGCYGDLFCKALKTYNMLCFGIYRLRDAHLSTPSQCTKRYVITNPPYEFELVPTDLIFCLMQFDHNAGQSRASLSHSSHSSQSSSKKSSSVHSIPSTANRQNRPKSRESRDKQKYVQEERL
Chain of BK channel (Q16558 whole entry partner, species assumed): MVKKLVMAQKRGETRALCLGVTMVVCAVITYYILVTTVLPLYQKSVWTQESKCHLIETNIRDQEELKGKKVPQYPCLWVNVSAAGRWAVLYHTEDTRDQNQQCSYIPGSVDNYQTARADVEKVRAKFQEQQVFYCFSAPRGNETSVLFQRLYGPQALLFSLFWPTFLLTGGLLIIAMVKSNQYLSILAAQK

[3] = Table 2, 10 μM compound, inside-out patch

Molecule	effect on BK channel activity, in words (SAR discussion based on V1/2 data) (BK channels [2])	ΔV1/2 (mV) in 100 nm Ca^2+ (BK channels [2]; [3]) [mV]	also measured
Nc1c(S(=O)(=O)[O-])cc(Nc2ccccc2)c2c1C(=O)c1ccccc1C2=O.[Na+] [Acid Blue 25, Sodium 1-Amino-9,10-Dioxo-4-(Phenylamino)-9,10-Dihydroanthracene-2-Sulfonate]	–	–	amplitude of the outward BK current compared to control (BK channels [1]): enhances the amplitude of the BK current; ΔV1/2 (mV) in 100 nm Ca^2+ (BK channels [2]; Table 1, 10 μM compound, inside-out patch, V1/2 control vs drug): −51.0 mV; shifted the V1/2 by (BK channels [2]; inside out patches, concentration not given): −56 mV
Nc1c(S(=O)(=O)[O-])cc(Nc2cccc(C(F)(F)F)c2)c2c1C(=O)c1ccccc1C2=O.[Na+] [SR-5-6, sodium 1-amino-9,10-dioxo-4-(3-(trifluoromethyl)phenylamino)-9,10-dihydroanthracene-2-sulfonate]	–	–	inward L-type calcium current amplitude (L-type calcium channel): reduced in amplitude
Nc1c(S(=O)(=O)[O-])cc(Nc2ccc3c(c2)CCCC3)c2c1C(=O)c1ccccc1C2=O.[Na+] [SR-5-69, sodium 1-amino-9,10-dioxo-4-((5,6,7,8-tetrahydronaphthalen-2-yl)amino)-9,10-dihydroanthracene-2-sulfonate]	dramatic increase in the activity	–	shift in the activation V1/2 (BK channels [2]; 30 nM, example patch of FIG. 8A): very small shift; shifted the V1/2 by (BK channels [2]; 1 μM): 110 mV; V1/2 reached in the presence of the drug (BK channels [2]; 1 μM, example patch of FIG. 8A): approximately +5 mV; shift of the V1/2 (BK channels [2]; 1 μM, example patch of FIG. 8A, hyperpolarising direction): > −100 mV; ΔV1/2 (mV) in 100 nm Ca^2+ (BK channels [2]; Table 2, 1 μM compound, inside-out patch): −101.6 mV; dose dependence of effects on open probability and ΔV1/2 for BK channels (BK channels [2]; increasing concentrations, inside-out patch): dose-dependent; EC50 (BK channels [2]; n=4-6 patches containing BK channels, read-out: mean EC50 (Langmuir fit of mean V1/2 against concentration)): 95 nM
Nc1c(S(=O)(=O)[O-])cc(Nc2ccc3ccccc3c2)c2c1C(=O)c1ccccc1C2=O.[Na+] [SR-5-72, sodium 1-amino-4-((naphthalen-2-yl)amino)-9,10-dioxo-9,10-dihydroanthracene-2-sulfonate]	dramatic increase in the activity	−103.8	shifted the V1/2 by (BK channels [2]; 1 μM): 93 mV
CC(C)(C)c1cccc(Nc2cc(S(=O)(=O)[O-])c(N)c3c2C(=O)c2ccccc2C3=O)c1.[Na+] [SR-5-76, sodium 1-amino-4-((3-(tert-butyl)phenyl)amino)-9,10-dioxo-9,10-dihydroanthracene-2-sulfonate]	BK channel agonists	−94.9	–
Nc1c(C(=O)O)cc(Nc2cccc(C(F)(F)F)c2)c2c1C(=O)c1ccccc1C2=O [SR-5-88, 1-amino-9,10-dioxo-4-((3-(trifluoromethyl)phenyl)amino)-9,10-dihydroanthracene-2-carboxylic acid]	activity was not altered	−98.8	–
Nc1c(S(=O)(=O)[O-])cc(Nc2cccc(-c3ccccc3)c2)c2c1C(=O)c1ccccc1C2=O.[Na+] [SR-5-94, sodium 4-([1,1′-biphenyl]-3-ylamino)-1-amino-9,10-dioxo-9,10-dihydroanthracene-2-sulfonate]	–	−60.0	–
CCc1ccccc1Nc1cc(S(=O)(=O)[O-])c(N)c2c1C(=O)c1ccccc1C2=O.[Na+] [SR-5-96, sodium 1-amino-4-((2-ethylphenyl)amino)-9,10-dioxo-9,10-dihydroanthracene-2-sulfonate]	BK channel agonists	−84.8	–
CCc1ccc(Nc2cc(S(=O)(=O)[O-])c(N)c3c2C(=O)c2ccccc2C3=O)cc1.[Na+] [SR-5-97, sodium 1-amino-4-((4-ethylphenyl)amino)-9,10-dioxo-9,10-dihydroanthracene-2-sulfonate]	BK channel openers	−78.5	–
CC(C)c1ccccc1Nc1cc(S(=O)(=O)[O-])c(N)c2c1C(=O)c1ccccc1C2=O.[Na+] [SR-5-98, sodium 1-amino-4((2-isopropylphenyl)amino)-9,10-dioxo-9,10-dihydroanthracene-2-sulfonate]	BK channel agonists	−120.0	–
CC(C)c1ccc(Nc2cc(S(=O)(=O)[O-])c(N)c3c2C(=O)c2ccccc2C3=O)cc1.[Na+] [SR-5-99, sodium 1-amino-4-((4-isopropylphenyl)amino)-9,10-dioxo-9,10-dihydroanthracene-2-sulfonate]	BK channel openers	−83.4	–
Basilen blue	–	–	BK channel activation, in words (BK channel): moderately potent BK channel activator
